Laboratory results taken from PMC12040169 (PLOS Biology, 2025).

Assay: in vitro
Details: human, hela cells, % viability

## COc1ccccc1C1(NC(=O)c2cnsc2)CCCC1 [CBK283643]
  viability at 28.5 h, 10 µM: 84.5%

## COc1ccc2c(c1)COC1(CCN(C(=O)N[C@@H](C)c3ccccc3)CC1)O2 [CBK060757]
Bulk resorufin, single well
  viability at 28.5 h, 10 µM: 106%

## O=C(Nc1ccccc1)Nc1cnns1 [CBK028557]
Bulk resorufin, single well
  viability at 28.5 h, 10 µM: 102%

## O=[N+]([O-])c1ccc(CN2CCC(Oc3nccnc3OCc3cccnc3)CC2)cc1 [CBK083162T]
  viability at 28.5 h, 10 µM: 95.8%

## CCOC(=O)CNS(=O)(=O)c1cccc2cccnc12 [CBK034440]
  viability at 28.5 h, 10 µM: 115%

## O=C(NC1CCCCC1)NS(=O)(=O)c1ccc(CCNC(=O)c2cnc3ccccc3n2)cc1 [CBK013051]
  viability at 28.5 h, 10 µM: 87.1%

## Cn1nccc1C(=O)NC1CCN(CC2(c3ccccc3)CC2)CC1 [CBK285373]
  viability at 28.5 h, 10 µM: 106%

## CC(=O)NC1(c2ccc(F)cc2)CCN(C(=O)C(C)C)CC1 [CBK283491]
  viability at 28.5 h, 10 µM: 103%

## Cc1nn(CC(=O)N2CCN(Cc3ccccn3)CC2)c(C)c1Cl [CBK305978]
  viability at 28.5 h, 10 µM: 93.8%

## CCC(CO)Nc1cncc(-c2cc(C(C)C)ccc2OC)n1 (stereo not shown) [CBK065743]
  viability at 28.5 h, 10 µM: 91.7%

## CC(NC(=O)C1CC(=O)OC1(C)C)c1ccc2c(c1)CCCO2 (stereo not shown) [CBK281613]
  viability at 28.5 h, 10 µM: 88.4%

## Cc1ccc(CC2CCCN(C(=O)NCc3cnn(C)c3)C2)cc1 (stereo not shown) [CBK303990]
  viability at 28.5 h, 10 µM: 91.8%

## c1ccc(CCN2CCC(Oc3nccnc3OCCN3CCOCC3)CC2)nc1 [CBK082944]
  viability at 28.5 h, 10 µM: 96%

## O=C(c1cccc(CN2CCN(c3nc(-c4ccccc4)ns3)CC2)c1)N1CCC(O)CC1 [CBK074709]
  viability at 28.5 h, 10 µM: 110%

## O=C(NCCCc1ccccn1)c1cnn(-c2ccc(F)cc2)c1 [CBK283287]
  viability at 28.5 h, 10 µM: 87.6%

## O=C(O)c1cccnc1SC1CC(=O)N(c2cccc(Cl)c2Cl)C1=O (stereo not shown) [CBK269306]
  viability at 28.5 h, 10 µM: 110%

## CC(=O)Nc1ccc(-c2cncc(N3CCN(CCN4CCCC4)CC3)n2)cc1 [CBK065710]
  viability at 28.5 h, 10 µM: 103%

## CCNC(=O)N1CC2(CCN(CCC(N)=O)CC2)c2ccccc21 [CBK144598T]
  viability at 28.5 h, 10 µM: 99.6%

## CS(=O)(=O)N(Cc1ccccc1)c1ccc(C(=O)Nc2ccccc2C(=O)O)cc1 [CBK264117]
  viability at 28.5 h, 10 µM: 108%

## CC1(C)Cc2c(cnn2-c2ccccc2)C(NS(=O)(=O)C2CC2)C1 (stereo not shown) [CBK307351]
  viability at 28.5 h, 10 µM: 102%

## CC(C)(C)c1ccc(S(=O)(=O)N2CCCCC2CCO)cc1[N+](=O)[O-] (stereo not shown) [CBK200067]
  viability at 28.5 h, 10 µM: 93.9%

## CCNC(=S)N[C@@H]1CC[C@@]2(c3ccc([N+](=O)[O-])cc3)CCN(CCc3ccccc3)[C@H]2C1 [CBK004677]
  viability at 28.5 h, 10 µM: 90.5%

## O=C(C1CCCC1)N1CCC(c2cccc(Cc3ccccc3Cl)n2)CC1 [CBK286507]
  viability at 28.5 h, 10 µM: 87.6%

## CCOCC(=O)N(C)C(CO)c1cc(OC)ccc1Br (stereo not shown) [CBK304722]
  viability at 28.5 h, 10 µM: 90%

## C[C@H](Nc1cncc(-c2cccc(C(=O)NCCO)c2)n1)c1ccccc1 [CBK066007]
  viability at 28.5 h, 10 µM: 108%

## COc1ccc(-c2nc(NC(=O)C3CCC(OC)CC3)cnc2-c2cccc(C)c2)cn1 (stereo not shown) [CBK036813]
  viability at 28.5 h, 10 µM: 109%

## CCOC(=O)COc1ccc2c(=O)c(Oc3ccc([N+](=O)[O-])cc3)c(C)oc2c1C [CBK266092]
  viability at 28.5 h, 10 µM: 96.6%

## CCc1ccc2c(c1)C(CCNC(=O)c1ncccc1F)C(=O)N2 (stereo not shown) [CBK304727]
  viability at 28.5 h, 10 µM: 106%

## Cc1ccc(NC(=O)CC(=O)NCCN2CCOCC2)cc1 [CBK262179]
  viability at 28.5 h, 10 µM: 92.8%

## Cc1ccnc(N2CCOC3(CCCC3)C2)n1 [CBK304794]
  viability at 28.5 h, 10 µM: 93.1%

## CC(=O)N1CCC[C@H]1Cn1nc(-c2cccs2)ccc1=O [CBK284249]
  viability at 28.5 h, 10 µM: 78.1%

## CC(C)Oc1cc(Br)cc(C(=O)N2CCC(C(=O)O)C2)c1 (stereo not shown) [CBK304268C]
  viability at 28.5 h, 10 µM: 92.6%

## Cc1cc(=O)[nH]c2c1c(=O)[nH]n2C1CCCCCC1 [CBK288381]
  viability at 28.5 h, 10 µM: 80.8%

## COc1ccc(CC(=O)N2CCC(c3cc4cnccc4[nH]3)CC2)cc1 [CBK283451]
  viability at 28.5 h, 10 µM: 87.2%

## CC(=O)c1ccccc1OCCOCCN1CCCC(C)C1 (stereo not shown) [CBK269625C]
  viability at 28.5 h, 10 µM: 106%

## CCOC(=O)C1(C2CCCCC2)CCN(C(=O)CC2CCCCC2)CC1 [CBK136919]
  viability at 28.5 h, 10 µM: 96.2%

## Oc1cccc(-c2cncc(NCCCN3CCOCC3)n2)c1 [CBK037858]
  viability at 28.5 h, 10 µM: 89.1%

## COCCn1c(SCc2cn3ccccc3c2C#N)nc(C)c1C [CBK306282]
  viability at 28.5 h, 10 µM: 92.4%

## COc1ccc(CC(=O)N2CCCCC2c2ccc(Cc3cccc(F)c3)nc2)cc1 (stereo not shown) [CBK286493]
  viability at 28.5 h, 10 µM: 90.3%

## Cc1cc(C)c2cc(CN(CCO)Cc3nnnn3CC3CCCO3)c(=O)[nH]c2c1 (stereo not shown) [CBK108944]
  viability at 28.5 h, 10 µM: 80%

## c1ccc(Cn2ccc3c(N4CCNCC4)nccc32)cc1 [CBK051672C]
  viability at 28.5 h, 10 µM: 87.9%

## COc1ccc(N2C(=O)CC(NNC(N)=O)C2=O)cc1 (stereo not shown) [CBK263080]
  viability at 28.5 h, 10 µM: 92.1%

## Cc1nnc(CCn2cnc3cccnc3c2=O)s1 [CBK307125]
  viability at 28.5 h, 10 µM: 96.7%

## CC(=O)N1CCc2sccc2C1c1ccccc1NC(=O)c1ccco1 (stereo not shown) [CBK286436]
  viability at 28.5 h, 10 µM: 98.1%

## COc1ccc(/C(N)=N/OC(=O)C(C)Oc2ccc(Br)cc2)cc1OC (stereo not shown) [CBK266807]
  viability at 28.5 h, 10 µM: 95.6%

## O=C(Nc1cccc(-c2nnc3n2CCCCC3)c1)[C@@H]1CCCN1C(=O)c1cccs1 [CBK297090]
  viability at 28.5 h, 10 µM: 109%

## CN1CCc2c(sc3c2C(=O)NC(c2ccco2)N3)C1 (stereo not shown) [CBK287277]
  viability at 28.5 h, 10 µM: 99.4%

## CCn1nc(C)c(-c2cncn2CCn2nc(C)c(C)c2C)c1C [CBK281782]
  viability at 28.5 h, 10 µM: 98.8%

## OCc1nnc2c3ccccc3c(-c3ccccc3)nn12 [CBK269927]
  viability at 28.5 h, 10 µM: 94.2%

## Cc1nn(CCC(=O)NC(c2ccccc2)c2cccnc2)c(C)c1C (stereo not shown) [CBK282547]
  viability at 28.5 h, 10 µM: 86.3%

## O=C(c1ccccn1)N1CCCC(n2cnc3cc(F)ccc32)C1 (stereo not shown) [CBK284476]
  viability at 28.5 h, 10 µM: 92.7%

## COc1ccc(N2CCN(c3cncc(-c4cccnc4)n3)CC2)cc1OC [CBK066086]
  viability at 28.5 h, 10 µM: 90.5%

## Cc1ccccc1C(=O)NCC(=O)Nc1ccc(Cl)nc1 [CBK091335]
  viability at 28.5 h, 10 µM: 103%

## COC(=O)[C@@H]1Cc2ncn(C)c2CN1S(=O)(=O)c1ccc(C#N)cc1 [CBK288993]
  viability at 28.5 h, 10 µM: 83.9%

## O=c1[nH]nc(SCCOc2c(Cl)c(Cl)c(Cl)c(Cl)c2Cl)c(=O)[nH]1 [CBK262794]
  viability at 28.5 h, 10 µM: 91%

## Nc1nonc1-c1nc2ccccc2n1CC(=O)NCc1ccccc1 [CBK264711]
  viability at 28.5 h, 10 µM: 92.1%

## COc1ccc(-c2nc(-c3cccc(F)c3)cnc2N)cc1OC [CBK063948]
  viability at 28.5 h, 10 µM: 98.4%

## CSCCC(=O)N1CCC2(CCN(Cc3ccccc3)C2)C1 (stereo not shown) [CBK136838]
  viability at 28.5 h, 10 µM: 93.8%

## COc1cc(C=CC(=O)O)cc(S(=O)(=O)Nc2ccccc2C(=O)NCCc2ccccc2)c1OC [CBK297487]
  viability at 28.5 h, 10 µM: 99.5%

## NC(CC(=O)O)c1ccc(OCCc2ccccc2)cc1 (stereo not shown) [CBK287053]
  viability at 28.5 h, 10 µM: 91.6%

## O=C(OCc1ccccc1)N1CCN(C(=O)c2cc3cc(Br)ccc3[nH]2)CC1 [CBK154991]
  viability at 28.5 h, 10 µM: 97.5%

## COCCN1CC(CNC(=O)c2cccc(F)c2O)CC1=O (stereo not shown) [CBK304386]
  viability at 28.5 h, 10 µM: 107%

## Cc1nnc(N/N=C\c2ccco2)n1N [CBK028824C]
  viability at 28.5 h, 10 µM: 97.4%

## O=C(O)c1ccc(N2CC(C(=O)Nc3ccc(F)cc3)CC2=O)cc1 (stereo not shown) [CBK286794]
  viability at 28.5 h, 10 µM: 85.3%
